Test results published in patent US12559464B2, “Quinazolinone dione compounds and uses thereof” (Edgewise Therapeutics, Inc., priority 2023, dated 2026).

Columns and labels:
[1] = system: myosin ATPase, Rabbit Psoas myofibrils; test: Myofibril ATPase assay, rabbit psoas (skeletal) myofibrils; assay type: biochemical; settings: Rabbit Psoas Prep pCa 25 GEOM_MEAN; for Rabbit Psoas Y125 value (marked #): concentration required to increase myosin ATP-ase activity by 25%; for Rabbit Psoas EC25 (Y75 value): concentration required to reduce myosin ATP-ase activity by 25%
[2] = system: myosin ATPase, Porcine Atria myofibrils; test: Myofibril ATPase assay, porcine atria myofibrils; assay type: biochemical; settings: Porcine Atria Prep pCa 25 GEOM_MEAN; for Porcine Atria EC25 (Y75 value): concentration required to reduce myosin ATP-ase activity by 25%
[3] = biological target: T1, myosin ATPase, Porcine Ventricle myofibrils (Sus scrofa, UniProt P79293); test: Myofibril ATPase assay, porcine ventricle myofibrils; assay type: biochemical, porcine (Yucatan minipigs); settings: concentration required to reduce myosin ATP-ase activity by 25%; Porcine Ventricle Prep pCa 25 GEOM_MEAN
T1 construct: Myofibrils from porcine cardiac muscle was isolated from the left ventricle of Yucatan minipigs; tissue Exemplar Genetics; host or cells: left ventricle of Yucatan minipigs, myofibrils
Summary of the method: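 Myofibrils from Yucatan minipig left ventricle; ADP production coupled via PK-LDH to NADH loss, read kinetically at 340 nm every 1.5–2 min for 75 min in PIPES/MgCl2 pH 7.0 buffer. Slopes normalized to vehicle and fit to 4-parameter logistic; values are concentrations giving 75% (inhibition) or 125% (activation) of vehicle activity.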

T1 sequence (P79293 whole entry): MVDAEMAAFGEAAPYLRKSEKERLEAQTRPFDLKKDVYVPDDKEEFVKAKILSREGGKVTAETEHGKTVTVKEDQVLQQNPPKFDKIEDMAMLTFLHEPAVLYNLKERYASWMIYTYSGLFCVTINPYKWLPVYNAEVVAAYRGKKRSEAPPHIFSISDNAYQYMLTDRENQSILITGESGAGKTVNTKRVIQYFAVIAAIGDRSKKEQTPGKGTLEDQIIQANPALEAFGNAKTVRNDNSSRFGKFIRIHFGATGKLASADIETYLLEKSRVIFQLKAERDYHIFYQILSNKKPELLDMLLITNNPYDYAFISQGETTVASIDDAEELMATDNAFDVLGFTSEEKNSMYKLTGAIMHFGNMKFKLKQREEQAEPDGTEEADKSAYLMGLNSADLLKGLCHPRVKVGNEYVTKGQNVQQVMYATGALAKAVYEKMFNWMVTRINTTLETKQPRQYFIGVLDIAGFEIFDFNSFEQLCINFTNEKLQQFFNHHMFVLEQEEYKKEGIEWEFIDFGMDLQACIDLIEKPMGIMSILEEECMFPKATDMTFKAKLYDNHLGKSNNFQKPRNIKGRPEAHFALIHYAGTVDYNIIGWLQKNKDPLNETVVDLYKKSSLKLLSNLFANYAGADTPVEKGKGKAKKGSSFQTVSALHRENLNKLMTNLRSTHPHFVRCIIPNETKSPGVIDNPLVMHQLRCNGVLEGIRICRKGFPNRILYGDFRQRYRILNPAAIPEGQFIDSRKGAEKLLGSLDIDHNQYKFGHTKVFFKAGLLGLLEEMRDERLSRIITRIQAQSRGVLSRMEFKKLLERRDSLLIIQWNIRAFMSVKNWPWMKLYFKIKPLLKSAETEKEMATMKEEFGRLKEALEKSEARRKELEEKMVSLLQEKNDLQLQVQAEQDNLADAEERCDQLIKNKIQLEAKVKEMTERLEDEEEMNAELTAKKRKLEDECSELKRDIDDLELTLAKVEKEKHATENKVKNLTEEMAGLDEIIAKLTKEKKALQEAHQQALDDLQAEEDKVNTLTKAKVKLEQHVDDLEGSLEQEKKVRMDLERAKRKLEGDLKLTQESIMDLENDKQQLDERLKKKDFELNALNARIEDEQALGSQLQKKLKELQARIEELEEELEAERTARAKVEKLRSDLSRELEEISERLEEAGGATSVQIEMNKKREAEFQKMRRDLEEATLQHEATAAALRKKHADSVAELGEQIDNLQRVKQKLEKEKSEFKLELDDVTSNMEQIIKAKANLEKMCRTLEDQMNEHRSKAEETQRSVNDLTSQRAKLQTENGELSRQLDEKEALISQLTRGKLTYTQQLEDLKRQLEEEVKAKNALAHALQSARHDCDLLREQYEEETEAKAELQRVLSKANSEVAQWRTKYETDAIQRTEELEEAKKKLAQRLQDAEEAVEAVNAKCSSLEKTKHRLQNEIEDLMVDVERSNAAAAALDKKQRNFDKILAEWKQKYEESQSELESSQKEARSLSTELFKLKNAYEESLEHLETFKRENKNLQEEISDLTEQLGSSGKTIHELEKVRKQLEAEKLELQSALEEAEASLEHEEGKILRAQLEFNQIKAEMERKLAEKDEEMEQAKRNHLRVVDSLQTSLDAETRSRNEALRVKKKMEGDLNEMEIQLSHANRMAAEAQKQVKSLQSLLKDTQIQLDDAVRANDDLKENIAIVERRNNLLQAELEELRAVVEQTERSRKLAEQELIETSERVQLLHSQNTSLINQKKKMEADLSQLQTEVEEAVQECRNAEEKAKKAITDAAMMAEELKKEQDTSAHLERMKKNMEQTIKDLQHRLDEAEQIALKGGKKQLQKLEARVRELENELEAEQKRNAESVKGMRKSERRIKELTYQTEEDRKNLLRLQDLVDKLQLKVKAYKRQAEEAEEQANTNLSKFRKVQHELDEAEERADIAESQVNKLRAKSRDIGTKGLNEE

Row | Rabbit Psoas Y125 value (marked #) [1] | Porcine Atria Y125 value (marked #) ([2]; concentration required to increase myosin ATP-ase activity by 25%) | Porcine Ventricle EC25 (Y75 value) [3] [µM] | Rabbit Psoas EC25 (Y75 value) [1] [µM] | Porcine Atria EC25 (Y75 value) [2] [µM] | Compound
1 | 23.575^#^ μM | 30.14^# μM | 100 |  |  | CC(C)CC(C(=O)N[C@@H](C)c1ccc(F)cc1F)n1c(=O)[nH]c2ccccc2c1=O (single isomer, unassigned) [Compound 512]
2 |  |  | 100 | 7.437 | 8.617 | C[C@H](NC(=O)Cn1c(=O)[nH]c2cccc(F)c2c1=O)c1ncc(C#N)cn1 (single isomer, unassigned) [Compound 202]
3 |  |  | 100 | 7.16 | 0.3539 | C[C@H](NC(=O)Cn1c(=O)[nH]c2cc(Cl)ccc2c1=O)c1ccc(F)cc1F [Compound 407, (S)-2-(7-chloro-2,4-dioxo-1,4-dihydroquinazolin-3(2H)-yl)-N-(1-(2,4-difluorophenyl)ethyl)acetamide]
4 |  |  | 100 | 9.2 | 2.081 | C[C@H](NC(=O)Cn1c(=O)[nH]c2cc(F)ccc2c1=O)c1ccc(F)cc1F [Compound 143, (S)-N-(1-(2,4-difluorophenyl)ethyl)-2-(7-fluoro-2,4-dioxo-1,4-dihydroquinazolin-3(2H)-yl)acetamide]
5 |  |  | 31.6 | 0.494 | 2.407 | CC(NC(=O)Cn1c(=O)[nH]c2ccccc2c1=O)c1ccc(F)cc1F (stereo not drawn) [Compound 169, N-(1-(2,4-difluorophenyl)ethyl)-2-(2,4-dioxo-1,4-dihydroquinazolin-3(2H)-yl)acetamide]
6 |  |  | 100 | 100 | 100 | C[C@H](NC(=O)Cn1c(=O)[nH]c2cncnc2c1=O)c1ccc(F)cc1F [Compound 96, (S)-N-(1-(2,4-difluorophenyl)ethyl)-2-(2,4-dioxo-1,4-dihydropyrimido[5,4-d]pyrimidin-3(2H)-yl)acetamide]
7 |  |  | 11.35 | 2.34 | 2.78 | Cc1c(F)ccc2[nH]c(=O)n(CC(=O)N[C@H](C)c3ncc(C#N)cn3)c(=O)c12 (single isomer, unassigned) [Compound 3005]
8 |  |  | 1.90 | 1.59 | 1.97 | Cc1c(F)ccc2[nH]c(=O)n(CC(=O)N[C@@H](C)c3ccc(C#N)cn3)c(=O)c12 (single isomer, unassigned) [Compound 3010]
9 |  |  | 1.64 | 0.086 | 0.0835 | C[C@H](NC(=O)[C@H](C)n1c(=O)[nH]c2cccc(O)c2c1=O)c1ccc(F)cc1F (single isomer, unassigned) [Compound 35]
10 |  |  | 100 | 100 | 100 | CC(NC(=O)Cn1c(=O)[nH]c2ccccc2c1=O)c1cncnc1 (stereo not drawn) [Compound 214, 2-(2,4-dioxo-1,4-dihydroquinazolin-3(2H)-yl)-N-(1-(pyrimidin-5-yl)ethyl)acetamide]
11 | 51.2^# μM |  | 100 |  | 100 | C[C@H](NC(=O)[C@H](Cc1ccccc1)n1c(=O)[nH]c2cccc(O)c2c1=O)c1ccc(F)cc1F [Compound 33, (S)-N-((S)-1-(2,4-difluorophenyl)ethyl)-2-(5-hydroxy-2,4-dioxo-1,4-dihydroquinazolin-3(2H)-yl)-3-phenylpropanamide]
12 |  |  | 100 | 100 | 100 | CC(NC(=O)Cn1c(=O)[nH]c2ccccc2c1=O)c1ccco1 (stereo not drawn) [Compound 604, 2-(2,4-dioxo-1,4-dihydroquinazolin-3(2H)-yl)-N-(1-(furan-2-yl)ethyl)acetamide]
13 |  |  | 100 | 8.499 | 3.241 | COc1nccc2[nH]c(=O)n(CC(=O)N[C@@H](C)c3ccc(F)cc3F)c(=O)c12 [Compound 65, (S)-N-(1-(2,4-difluorophenyl)ethyl)-2-(5-methoxy-2,4-dioxo-1,4-dihydropyrido[4,3-d]pyrimidin-3(2H)-yl)acetamide]
14 |  |  | 1.35 | 0.104 | 0.0803 | C[C@H](NC(=O)[C@@H](C)n1c(=O)[nH]c2cccc(O)c2c1=O)c1ccc(F)cc1F (single isomer, unassigned) [Compound 36]
15 |  |  | 100 | 100 | 100 | C[C@H](NC(=O)C(c1cccnc1)n1c(=O)[nH]c2ccccc2c1=O)c1ccc(F)cc1F (single isomer, unassigned) [Compound 508]
16 |  |  | 100 | 100 | 100 | COc1ccc(F)cc1C(C)NC(=O)Cn1c(=O)[nH]c2ccccc2c1=O (stereo not drawn) [Compound 520, 2-(2,4-dioxo-1,4-dihydroquinazolin-3(2H)-yl)-N-(1-(5-fluoro-2-methoxyphenyl)ethyl)acetamide]
17 |  |  | 50.21 | 84.531 | 100 | C[C@H](NC(=O)[C@H](CC1CC1)n1c(=O)[nH]c2ccccc2c1=O)c1ccc(F)cc1F (single isomer, unassigned) [Compound 501]
18 |  |  | 100 | 100 | 100 | C[C@H](NC(=O)[C@H](CC1CC1)n1c(=O)[nH]c2ccccc2c1=O)c1ncc(F)cc1F (single isomer, unassigned) [Compound 211]
19 |  |  | 100 | 12.272 | 31.84 | C[C@@H](NC(=O)Cn1c(=O)[nH]c2ccccc2c1=O)c1ccncc1F (single isomer, unassigned) [Compound 100]
20 |  |  | 5.522 | 0.512 | 0.378 | C[C@H](NC(=O)Cn1c(=O)[nH]c2ccc(F)c(F)c2c1=O)c1ccc(C#N)cn1 (single isomer, unassigned) [Compound 18]
21 |  |  | 100 | 11.968 | 73.54 | CC(NC(=O)Cn1c(=O)[nH]c2ccccc2c1=O)c1ccccc1Br (stereo not drawn) [Compound 524, N-(1-(2-bromophenyl)ethyl)-2-(2,4-dioxo-1,4-dihydroquinazolin-3(2H)-yl)acetamide]
22 |  |  | 100 | 100 | 100 | C[C@H](NC(=O)Cn1c(=O)[nH]c2ncccc2c1=O)c1ccc(F)cc1F [Compound 302, (S)-N-(1-(2,4-difluorophenyl)ethyl)-2-(2,4-dioxo-1,4-dihydropyrido[2,3-d]pyrimidin-3(2H)-yl)acetamide]
23 |  |  | 0.3333 | 0.055 | 0.0536 | C[C@H](NC(=O)Cn1c(=O)[nH]c2ccc(F)c(F)c2c1=O)c1ccc(F)cc1F [Compound 39, (S)-2-(5,6-difluoro-2,4-dioxo-1,4-dihydroquinazolin-3(2H)-yl)-N-(1-(2,4-difluorophenyl)ethyl)acetamide]
24 |  |  | 100 | 100 | 100 | C[C@H](NC(=O)Cn1c(=O)[nH]c2ncncc2c1=O)c1ccc(F)cc1F [Compound 95, (S)-N-(1-(2,4-difluorophenyl)ethyl)-2-(2,4-dioxo-1,4-dihydropyrimido[4,5-d]pyrimidin-3(2H)-yl)acetamide]
25 |  |  | 10.96 | 0.89 | 1.89 | C[C@H](NC(=O)C1(n2c(=O)[nH]c3cccc(C#N)c3c2=O)CC1)c1ncc(C#N)cc1F (single isomer, unassigned) [Compound 3015]
26 |  |  | 100.00 | 100.00 | 100.00 | C[C@@H](NC(=O)C1(n2c(=O)[nH]c3cccc(C#N)c3c2=O)CC1)c1ncc(C#N)cc1F (single isomer, unassigned) [Compound 3014]
27 |  |  | 0.25 | 0.06 | 0.10 | Cc1c(F)ccc2[nH]c(=O)n(CC(=O)N[C@H](C)c3ccc(C#N)cn3)c(=O)c12 (single isomer, unassigned) [Compound 3009]
28 |  |  | 100 | 100 | 100 | C[C@@H](NC(=O)Cn1c(=O)[nH]c2ccccc2c1=O)c1ccc(Cl)cc1 (single isomer, unassigned) [Compound 526]
29 |  |  | 100 | 100 | 100 | C[C@H](NC(=O)Cn1c(=O)[nH]c2cc(C(F)(F)F)ccc2c1=O)c1ccc(F)cc1F [Compound 405, (S)-N-(1-(2,4-difluorophenyl)ethyl)-2-(2,4-dioxo-7-(trifluoromethyl)-1,4-dihydroquinazolin-3(2H)-yl)acetamide]
